Source: publication PMC11167047 (Cell Death Discovery, 2024)

Key:
Test in all cases: kinome screen (33PanQinase)
Type in all cases: biochemical
CDK3/CycC = molecular target: T1, CDK3/CycC (Homo sapiens, UniProt Q00526)
T1 construct: purchased Reaction Biology Europe GmbH (formerly ProQinase)
Experimental: (§1) The Kinome Screening was performed by Reaction Biology Europe GmbH (http://reactionbiology.com; Freiburg i. Br., Germany).

DAPK1 = molecular target: T2, DAPK1 (Homo sapiens, UniProt P53355)
T2 construct: purchased Reaction Biology Europe GmbH (formerly ProQinase)
T2 sequence (P53355 whole entry): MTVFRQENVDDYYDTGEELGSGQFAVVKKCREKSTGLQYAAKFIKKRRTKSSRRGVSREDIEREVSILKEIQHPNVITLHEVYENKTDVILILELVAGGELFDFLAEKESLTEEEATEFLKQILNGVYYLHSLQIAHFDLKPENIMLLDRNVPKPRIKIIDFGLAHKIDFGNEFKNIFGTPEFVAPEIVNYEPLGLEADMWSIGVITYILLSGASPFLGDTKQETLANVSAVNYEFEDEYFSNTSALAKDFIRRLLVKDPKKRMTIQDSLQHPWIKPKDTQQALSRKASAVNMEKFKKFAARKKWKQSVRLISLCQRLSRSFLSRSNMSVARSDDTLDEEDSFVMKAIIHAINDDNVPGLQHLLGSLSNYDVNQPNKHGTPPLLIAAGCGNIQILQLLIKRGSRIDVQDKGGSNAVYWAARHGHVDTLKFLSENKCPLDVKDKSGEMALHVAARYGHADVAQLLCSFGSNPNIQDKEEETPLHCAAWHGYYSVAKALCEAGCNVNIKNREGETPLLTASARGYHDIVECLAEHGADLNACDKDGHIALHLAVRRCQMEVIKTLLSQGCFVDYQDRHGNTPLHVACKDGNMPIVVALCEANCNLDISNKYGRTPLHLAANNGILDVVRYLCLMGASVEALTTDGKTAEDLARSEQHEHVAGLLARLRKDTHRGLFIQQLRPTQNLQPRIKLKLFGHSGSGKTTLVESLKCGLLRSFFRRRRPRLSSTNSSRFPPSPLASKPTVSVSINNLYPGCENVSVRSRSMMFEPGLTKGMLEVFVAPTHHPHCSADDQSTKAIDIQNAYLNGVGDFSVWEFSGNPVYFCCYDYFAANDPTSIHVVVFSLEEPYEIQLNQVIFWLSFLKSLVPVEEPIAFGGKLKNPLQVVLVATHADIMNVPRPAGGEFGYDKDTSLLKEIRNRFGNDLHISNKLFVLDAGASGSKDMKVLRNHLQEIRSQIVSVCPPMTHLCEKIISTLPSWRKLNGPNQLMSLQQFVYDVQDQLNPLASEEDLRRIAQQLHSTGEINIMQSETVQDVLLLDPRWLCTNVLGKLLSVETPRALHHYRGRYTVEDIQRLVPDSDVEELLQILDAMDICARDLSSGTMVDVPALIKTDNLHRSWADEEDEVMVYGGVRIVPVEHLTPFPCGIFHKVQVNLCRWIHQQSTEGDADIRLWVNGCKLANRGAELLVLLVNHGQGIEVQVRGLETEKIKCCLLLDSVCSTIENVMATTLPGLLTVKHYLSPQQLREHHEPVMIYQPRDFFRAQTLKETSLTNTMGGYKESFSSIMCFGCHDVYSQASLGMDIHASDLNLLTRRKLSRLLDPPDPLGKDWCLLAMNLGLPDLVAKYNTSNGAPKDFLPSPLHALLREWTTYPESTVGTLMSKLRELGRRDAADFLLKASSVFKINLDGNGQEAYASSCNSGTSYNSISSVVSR
Experimental: as §1

HIPK3 = molecular target: T3, HIPK3 (Homo sapiens, UniProt Q9H422)
T3 construct: purchased Reaction Biology Europe GmbH (formerly ProQinase)
T3 sequence (Q9H422 whole entry): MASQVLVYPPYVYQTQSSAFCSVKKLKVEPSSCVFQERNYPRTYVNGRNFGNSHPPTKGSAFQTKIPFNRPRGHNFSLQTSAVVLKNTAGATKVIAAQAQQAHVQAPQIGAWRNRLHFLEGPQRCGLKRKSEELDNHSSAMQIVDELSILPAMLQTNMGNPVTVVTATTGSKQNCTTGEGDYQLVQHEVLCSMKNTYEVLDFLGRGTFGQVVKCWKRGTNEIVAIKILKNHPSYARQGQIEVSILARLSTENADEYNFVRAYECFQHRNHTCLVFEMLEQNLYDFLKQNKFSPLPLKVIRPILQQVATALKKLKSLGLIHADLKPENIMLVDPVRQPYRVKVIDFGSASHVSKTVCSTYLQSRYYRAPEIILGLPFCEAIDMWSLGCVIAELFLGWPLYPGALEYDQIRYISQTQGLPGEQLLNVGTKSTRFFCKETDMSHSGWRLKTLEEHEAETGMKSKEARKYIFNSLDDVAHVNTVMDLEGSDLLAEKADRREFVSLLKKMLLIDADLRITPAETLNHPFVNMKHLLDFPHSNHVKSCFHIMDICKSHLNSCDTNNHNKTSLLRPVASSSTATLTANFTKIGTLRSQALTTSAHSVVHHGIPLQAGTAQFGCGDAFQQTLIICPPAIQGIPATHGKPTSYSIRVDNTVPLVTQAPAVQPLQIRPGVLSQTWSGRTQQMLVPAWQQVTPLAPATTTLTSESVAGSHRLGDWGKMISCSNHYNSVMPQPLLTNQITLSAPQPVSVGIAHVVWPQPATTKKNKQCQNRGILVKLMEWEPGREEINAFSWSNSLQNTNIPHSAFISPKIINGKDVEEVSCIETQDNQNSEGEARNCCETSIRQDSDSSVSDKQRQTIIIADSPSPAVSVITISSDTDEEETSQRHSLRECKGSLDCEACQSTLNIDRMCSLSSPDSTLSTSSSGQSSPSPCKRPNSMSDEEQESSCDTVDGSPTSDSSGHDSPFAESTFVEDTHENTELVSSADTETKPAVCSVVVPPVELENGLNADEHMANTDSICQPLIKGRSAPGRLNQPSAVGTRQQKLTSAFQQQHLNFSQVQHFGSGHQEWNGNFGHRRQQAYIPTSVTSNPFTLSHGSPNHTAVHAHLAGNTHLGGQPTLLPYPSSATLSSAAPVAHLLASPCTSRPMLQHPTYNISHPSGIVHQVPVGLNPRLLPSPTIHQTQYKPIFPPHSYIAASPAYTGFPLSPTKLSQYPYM
Experimental: as §1

MKK6 SDTD = molecular target: T4, MKK6 SDTD (Homo sapiens, UniProt P52564, S207D/T211D)
T4 construct: purchased Reaction Biology Europe GmbH (formerly ProQinase)
T4 sequence (P52564 1-334 S207D/T211D): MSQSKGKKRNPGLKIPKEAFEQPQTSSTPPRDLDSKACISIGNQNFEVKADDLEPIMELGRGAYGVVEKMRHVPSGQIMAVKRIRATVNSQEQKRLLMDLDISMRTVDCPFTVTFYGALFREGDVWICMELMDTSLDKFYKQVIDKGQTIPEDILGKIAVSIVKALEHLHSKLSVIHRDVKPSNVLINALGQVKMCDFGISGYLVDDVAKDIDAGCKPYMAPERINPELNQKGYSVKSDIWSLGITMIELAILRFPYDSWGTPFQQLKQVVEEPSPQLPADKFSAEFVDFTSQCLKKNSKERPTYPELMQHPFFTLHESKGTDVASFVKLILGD
Experimental: as §1

NEK6 = molecular target: T5, NEK6 (Homo sapiens, UniProt Q9HC98)
T5 construct: purchased Reaction Biology Europe GmbH (formerly ProQinase)
Experimental: as §1

RIPK2 = molecular target: T6, RIPK2 (Homo sapiens, UniProt O43353)
T6 construct: purchased Reaction Biology Europe GmbH (formerly ProQinase)
T6 sequence (O43353 whole entry): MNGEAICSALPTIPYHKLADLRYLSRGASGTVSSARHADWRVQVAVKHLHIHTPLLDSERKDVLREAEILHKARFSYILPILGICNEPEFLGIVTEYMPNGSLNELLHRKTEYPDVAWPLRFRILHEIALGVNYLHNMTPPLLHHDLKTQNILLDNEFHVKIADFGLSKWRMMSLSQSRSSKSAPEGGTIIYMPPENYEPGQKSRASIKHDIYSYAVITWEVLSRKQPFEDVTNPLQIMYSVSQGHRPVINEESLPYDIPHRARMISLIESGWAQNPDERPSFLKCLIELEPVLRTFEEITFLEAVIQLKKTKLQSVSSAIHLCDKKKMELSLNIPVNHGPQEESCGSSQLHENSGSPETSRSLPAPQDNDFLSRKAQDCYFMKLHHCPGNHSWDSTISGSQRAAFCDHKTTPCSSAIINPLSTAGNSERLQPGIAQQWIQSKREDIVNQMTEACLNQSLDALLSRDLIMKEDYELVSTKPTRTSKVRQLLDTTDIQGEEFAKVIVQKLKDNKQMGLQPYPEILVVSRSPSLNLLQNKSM
Experimental: as §1

SYK = molecular target: T7, SYK (Homo sapiens, UniProt P43405)
T7 construct: purchased Reaction Biology Europe GmbH (formerly ProQinase)
Experimental: as §1

TAOK2 = molecular target: T8, TAOK2 (Homo sapiens, UniProt Q9UL54)
T8 construct: purchased Reaction Biology Europe GmbH (formerly ProQinase)
T8 sequence (Q9UL54 1-1235): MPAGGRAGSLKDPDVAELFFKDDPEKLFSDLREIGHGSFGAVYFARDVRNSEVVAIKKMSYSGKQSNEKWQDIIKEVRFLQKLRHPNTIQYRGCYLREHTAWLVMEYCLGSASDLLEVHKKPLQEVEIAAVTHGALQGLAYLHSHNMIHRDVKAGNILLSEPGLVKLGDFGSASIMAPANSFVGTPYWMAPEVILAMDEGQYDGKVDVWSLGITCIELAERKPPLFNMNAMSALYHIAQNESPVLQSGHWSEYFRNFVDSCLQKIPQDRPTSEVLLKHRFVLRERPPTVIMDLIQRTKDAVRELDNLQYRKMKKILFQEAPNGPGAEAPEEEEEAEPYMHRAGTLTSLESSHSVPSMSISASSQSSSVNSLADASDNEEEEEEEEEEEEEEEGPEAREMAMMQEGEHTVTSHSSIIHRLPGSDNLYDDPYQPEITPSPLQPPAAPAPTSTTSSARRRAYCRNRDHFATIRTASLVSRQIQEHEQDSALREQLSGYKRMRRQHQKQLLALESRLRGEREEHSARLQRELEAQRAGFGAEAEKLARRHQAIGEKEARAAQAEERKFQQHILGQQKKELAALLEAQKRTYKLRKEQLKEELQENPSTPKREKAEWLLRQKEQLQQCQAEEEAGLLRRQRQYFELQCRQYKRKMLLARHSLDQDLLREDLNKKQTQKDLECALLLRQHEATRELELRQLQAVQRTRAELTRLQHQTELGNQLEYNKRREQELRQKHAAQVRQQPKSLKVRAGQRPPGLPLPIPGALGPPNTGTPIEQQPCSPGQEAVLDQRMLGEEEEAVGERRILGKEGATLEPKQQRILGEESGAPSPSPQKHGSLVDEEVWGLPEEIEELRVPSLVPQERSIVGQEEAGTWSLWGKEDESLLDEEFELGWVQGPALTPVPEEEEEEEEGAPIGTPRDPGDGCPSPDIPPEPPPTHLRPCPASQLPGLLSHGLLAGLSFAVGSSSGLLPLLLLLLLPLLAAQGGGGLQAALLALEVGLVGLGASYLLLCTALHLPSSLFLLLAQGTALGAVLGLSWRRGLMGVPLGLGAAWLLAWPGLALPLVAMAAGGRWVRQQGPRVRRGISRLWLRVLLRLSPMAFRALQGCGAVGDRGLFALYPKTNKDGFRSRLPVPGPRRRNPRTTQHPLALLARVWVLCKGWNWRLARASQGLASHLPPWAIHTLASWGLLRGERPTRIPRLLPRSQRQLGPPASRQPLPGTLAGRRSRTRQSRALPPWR
Experimental: as §1

WEE1 = molecular target: T9, WEE1 (Homo sapiens, UniProt P30291)
T9 construct: purchased Reaction Biology Europe GmbH (formerly ProQinase)
Experimental: as §1

WNK3 = molecular target: T10, WNK3 (Homo sapiens, UniProt Q9BYP7)
T10 construct: purchased Reaction Biology Europe GmbH (formerly ProQinase)
T10 sequence (Q9BYP7 whole entry): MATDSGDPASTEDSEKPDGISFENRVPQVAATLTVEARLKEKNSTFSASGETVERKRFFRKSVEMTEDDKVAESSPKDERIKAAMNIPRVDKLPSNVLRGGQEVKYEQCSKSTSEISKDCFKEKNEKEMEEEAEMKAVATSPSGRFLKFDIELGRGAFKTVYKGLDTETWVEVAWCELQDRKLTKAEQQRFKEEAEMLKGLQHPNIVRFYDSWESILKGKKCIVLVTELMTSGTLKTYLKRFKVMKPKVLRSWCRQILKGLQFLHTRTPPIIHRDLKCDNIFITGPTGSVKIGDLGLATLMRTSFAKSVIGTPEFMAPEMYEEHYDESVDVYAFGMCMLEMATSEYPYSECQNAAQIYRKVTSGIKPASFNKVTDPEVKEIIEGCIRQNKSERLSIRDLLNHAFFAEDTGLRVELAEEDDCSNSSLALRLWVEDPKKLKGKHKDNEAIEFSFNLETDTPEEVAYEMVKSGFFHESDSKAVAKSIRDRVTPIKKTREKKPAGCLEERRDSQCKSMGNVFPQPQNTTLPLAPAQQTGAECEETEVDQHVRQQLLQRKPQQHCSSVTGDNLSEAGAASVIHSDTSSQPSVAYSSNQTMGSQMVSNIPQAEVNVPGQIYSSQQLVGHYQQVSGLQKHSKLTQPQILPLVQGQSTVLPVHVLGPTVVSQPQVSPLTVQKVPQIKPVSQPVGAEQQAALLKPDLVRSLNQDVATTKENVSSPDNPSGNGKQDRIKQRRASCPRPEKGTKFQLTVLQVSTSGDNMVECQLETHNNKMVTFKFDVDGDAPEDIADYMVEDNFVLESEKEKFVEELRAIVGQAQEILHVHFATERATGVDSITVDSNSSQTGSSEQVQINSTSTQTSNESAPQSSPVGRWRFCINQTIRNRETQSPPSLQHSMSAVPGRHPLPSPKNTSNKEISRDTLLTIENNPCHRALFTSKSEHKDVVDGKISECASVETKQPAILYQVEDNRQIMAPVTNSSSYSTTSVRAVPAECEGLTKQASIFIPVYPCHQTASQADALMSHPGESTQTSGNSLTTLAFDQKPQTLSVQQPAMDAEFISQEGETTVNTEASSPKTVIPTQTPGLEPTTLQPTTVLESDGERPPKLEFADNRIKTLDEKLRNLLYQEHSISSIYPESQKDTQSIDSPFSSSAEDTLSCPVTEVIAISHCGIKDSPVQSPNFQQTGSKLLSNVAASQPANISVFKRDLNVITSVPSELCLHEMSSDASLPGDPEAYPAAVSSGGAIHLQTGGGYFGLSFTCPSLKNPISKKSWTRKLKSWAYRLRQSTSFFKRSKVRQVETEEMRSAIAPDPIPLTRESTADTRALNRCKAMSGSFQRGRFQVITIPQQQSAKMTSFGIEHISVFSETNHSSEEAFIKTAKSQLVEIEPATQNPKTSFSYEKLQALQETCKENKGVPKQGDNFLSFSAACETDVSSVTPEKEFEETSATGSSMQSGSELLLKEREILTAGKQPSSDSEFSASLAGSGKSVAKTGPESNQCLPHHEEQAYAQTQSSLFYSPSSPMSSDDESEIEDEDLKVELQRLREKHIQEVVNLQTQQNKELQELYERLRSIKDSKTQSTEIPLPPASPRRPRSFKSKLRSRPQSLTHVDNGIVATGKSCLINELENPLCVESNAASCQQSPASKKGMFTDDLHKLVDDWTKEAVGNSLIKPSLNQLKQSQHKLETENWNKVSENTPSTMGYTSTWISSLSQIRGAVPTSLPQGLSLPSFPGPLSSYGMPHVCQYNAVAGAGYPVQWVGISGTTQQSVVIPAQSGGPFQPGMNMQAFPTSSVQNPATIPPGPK
Experimental: as §1

Compound | residual kinase activity (CDK3/CycC; 0.3 µM) | residual kinase activity (DAPK1; 0.3 µM) | residual kinase activity (HIPK3; 0.3 µM) | residual kinase activity (MKK6 SDTD; 0.3 µM) | residual kinase activity (NEK6; 0.3 µM) | residual kinase activity (RIPK2; 0.3 µM) | residual kinase activity (SYK; 0.3 µM) | residual kinase activity (TAOK2; 0.3 µM) | residual kinase activity (WEE1; 0.3 µM) | residual kinase activity (WNK3; 0.3 µM) | also measured
COc1ccnc2[nH]cc(-c3cc(N)nc(N)c3)c12 [meriolin 16] | 20 % of control | 72 % of control | 7 % of control | 87 % of control | 104 % of control | 78 % of control | 84 % of control | 89 % of control | 99 % of control | 85 % of control | residual kinase activity (CDK3/CycC; 0.03 µM): 71 % of control; residual kinase activity (DAPK1; 0.03 µM): 112 % of control; residual kinase activity (HIPK3; 0.03 µM): 53 % of control; residual kinase activity (MKK6 SDTD; 0.03 µM): 77 % of control; residual kinase activity (NEK6; 0.03 µM): 107 % of control; residual kinase activity (RIPK2; 0.03 µM): 95 % of control; residual kinase activity (SYK; 0.03 µM): 93 % of control; residual kinase activity (TAOK2; 0.03 µM): 107 % of control; residual kinase activity (WEE1; 0.03 µM): 80 % of control; residual kinase activity (WNK3; 0.03 µM): 85 % of control
c1ccc(CNc2cc(-c3c[nH]c4ncccc34)ccn2)cc1 [meriolin 36] | 9 % of control | 119 % of control | 45 % of control | 63 % of control | 112 % of control | 61 % of control | 90 % of control | 60 % of control | 72 % of control | 106 % of control | residual kinase activity (CDK3/CycC; 3 µM): 3 % of control; residual kinase activity (DAPK1; 3 µM): 64 % of control; residual kinase activity (HIPK3; 3 µM): 11 % of control; residual kinase activity (MKK6 SDTD; 3 µM): 30 % of control; residual kinase activity (NEK6; 3 µM): 108 % of control; residual kinase activity (RIPK2; 3 µM): 33 % of control; residual kinase activity (SYK; 3 µM): 64 % of control; residual kinase activity (TAOK2; 3 µM): 19 % of control; residual kinase activity (WEE1; 3 µM): 37 % of control; residual kinase activity (WNK3; 3 µM): 104 % of control
